{"source": "patent US20220160703A1", "about": "“TUMOR-SELECTIVE COMBINATION THERAPY” (The Board of Regents of The University of Texas System, priority 2019, published 2022)", "tested_on": "tumor-infiltrating immune cells", "test": "Flow cytometric analysis of immune cells in tumor and organs", "assay_type": "in vivo, mice", "protocol": "(FIGS. 11A-B) Single cells were conducted from MC38 (FIG. 11A) or TC-1 (FIG. 11B) tumor tissues after 3 days of β-lap treatment. The frequency of CD11b+ Gr1+ cells were then analyzed by flow cytometry. (FIGS. 11C-D) C57BL/6 WT mice (n=5/group) were inoculated subcutaneously (s.c.) with 6×10^5 MC38 (FIG. 11C) or 1×10^5 TC-1 (FIG. 11D) cells and treated intratumorally (i.t.) with 0.3 (mg) of β-lap or vehicle on day 9, day 12, and day 15. Anti-Ly6G blocking Ab (200 μg) were intraperitoneally administered twice a week, starting on day 8. Tumor growth was monitored twice a week. Data are shown as mean±SEM from two to three independent experiments. **P<0.01, ***P<0.001, ****P<0.0001 determined by two-way ANOVA.\n(FIG. 18A) B16 NQO1 #1 cells were subcutaneously transplanted into C57BL/6 WT and Rag1KO mice (n=5/group), respectively. Tumor bearing mice were treated with β-lap (0.3 mg, i.t.) every other day for four times. (FIG. 18B) Changes of the immune cells in the tumor microenvironment 7 days after β-lap treatment. […] 7 days after the last treatment, tumor tissue was removed and digested, and immune cells were analyzed with flow cytometer (unpaired student t-test was used to analyze the significance of changes, *P<0.05, **P<0.01). […]\n6×10^5 MC38 cells were subcutaneously transplanted into C57BL/6 mice (n=3/group). […] (FIG. 23B) Quantification of immune populations from vehicle and IB-DNQ treated tumors. […] CFSE labeled splenocytes were treated with lethal dose IB-DNQ for 4 h followed by washing and stimulation with anti-CD3 (1 μg/ml) and anti-CD28 (2 μg/ml) for 48 h, proliferative CD8 T cells were then analyzed by flow cytometry assay. […] 24 h later, cell death was analyzed by flow cytometry. […]\nNaïve (n=5/group) and IB-DNQ-cured MC38 tumor-free (n=7/group) C57BL/6 mice were re-challenged subcutaneously with 3×10^6 MC38 cells on the opposite site from the primary tumor 60 days after complete rejection. […] (FIG. 26F) DCs from LNs of tumor-free (TF) or tumor-bearing mice were stimulated with antigen induced by IB-DNQ (1 μM) for 5 h, then CD44 expression on DCs was assessed.", "data": [{"smiles": "CC1(C)CCC2=C(O1)c1ccccc1C(=O)C2=O", "note": "[β-lap, β-lapachone]", "values": [{"measurement": "T cells in treated tumors", "setting": "MC38, 7 days after β-lap 0.3 mg i.t. two times", "result": "increase in CD4^+ and CD8^+ T cells"}, {"measurement": "CD45+ cells, CD8+ T cells and CD8+ T cell:Treg cell ratio in tumor tissues", "setting": "MC38-OVA, 12 days after initial treatment", "result": "significant increase"}, {"measurement": "tumor-infiltrating neutrophils (CD11b+Gr1+)", "setting": "after 3 days of β-lap treatment", "result": "significantly increased"}]}]}
